Experimental data: patent publication US9029414B2, “Triterpenoid compounds and methods of use thereof” (Biotechnology Research Corporation, priority 2008, dated 2015)

Assays:
MC2 receptor = biological target: T1, MC2 receptor (Homo sapiens, UniProt Q01718); assay: Cellular receptor functional assay (cAMP), MC2; format: cell-based
T1 construct: expressed in transfected cells
Description: DA001 inhibits ligand binding to MC1 and MC4 receptors. To determine whether the inhibitory effect is due to agonist or antagonist activity, DA001 was evaluated at 6 or 8 concentrations in cellular assays assessing receptor function. Upon ligand binding, the MC1 or MC4 receptor is activated which leads to an increase in intracellular cyclic AMP. […] DA001 alone is unable to induce cAMP increase (blue square dots). […] DA001 was further evaluated with MC2 receptor functional assay. Upon ligand binding, the MC2 receptor is activated which leads to an increase in intracellular cyclic AMP.

ischemic rats = assay: MCAO (middle carotid artery occlusion) transient focal ischemia model; format: in vivo
Description: The MCAO (middle carotid artery occlusion model) was performed to investigate the protective effects of DA001 on the brain when the brain was exposed to transient focal ischemia (or lack of oxygen) such as during a stroke. Hemispheric brain swelling and infarct volume (the area of dead tissue caused by inadequate blood supply) was measured for test subjects treated with the compound 6 hours after ischemia and compared to that of the control group.
The MCAO (middle carotid artery occlusion model) was performed to investigate the protective effects of DA001 on the brain when exposed to transient focal ischemia (or lack of oxygen) such as during a stroke. Neurological scores, hemispheric brain swelling and infarct volume (the area of dead tissue caused by inadequate blood supply) was measured in test subjects treated with the compound 6 hours after ischemia and compared to that of the control group. DA001 effectively attenuated neurological deficits, reduced infarct volume (the area of dead tissue caused by inadequate blood supply), especially in brain slices number 3 to 5, and the extent of edema during ischemic conditions as shown in FIG. 2.

hippocampal neurons = assay: Hippocampal neuron survival assay against glutamate excitotoxicity (LDH); format: cell-based, Sprague-Dawley rats; details: 30 μM 24 hrs, glutamate 10-200 μM 20 min
Description: Hippocampal neurons/cortical neurons were prepared from embryonic day 18 Sprague-Dawley rats. After the cortices had been removed from the brain, isolated cells were plated onto Poly d-Lysine (PDL) (P0899, Sigma)-coated 48 well plates (150687, NUNC) at a density of 2×10^5 cell per well using Neurobasal Medium (NB) (21103-049, Gibco) with B27 supplement (17504-044, Gibco), penicillin/streptomycin (15140, Gibco) and 1 mM L-glutamine (25030, Gibco). The cell culture was incubated at 37° C. in a humidified atmosphere of 5% CO2 in air. Medium was changed to growth medium (Neurobasal Medium with penicillin/streptomycin and B27 supplement) after 3 hours. Half medium was changed with growth medium every 2-3 days to maintain the cells until day 10 in vitro (DIV 10). Serial dilutions of samples were prepared in growth medium and DMSO was used as vehicle control. For pre-treating assay, half of the medium was removed from wells, and equal amount of diluted samples were replaced. Cells were then incubated for 2 hours at 37° C. in a humidified atmosphere of 5% CO2 in air. […] Afterwards, cells were incubated in growth medium for 18-24 hours and detected with Cytotoxicity Detection Kit (1644793, Roche).
Hippocampal neurons were treated with DA021 and subsequently subjected to varying concentrations of glutamate. […] LDH release into the medium was then measured.

[1] = test system: scopolamine-induced memory impaired mice; assay: Morris water maze, scopolamine-induced memory impairment; format: in vivo; details: 10 mg/kg orally, scopolamine 4 mg/kg i.p.; day 4 and day 5
Description: 6-8 week old outbred male I.C.R. mice, weighing 25-35 g were housed two per cage in a climatically controlled animal room (23-25° C.) under 12 hours light/dark cycling. The animals were allowed access to water and food ad lib. The mice used for the experiment were brought to particular laboratory conditions for two days. All the experiments were conducted between 14:00 and 18:00. […] The experimental mice were randomly assigned into 4 or 6 groups, each consisting of 12 mice with similar mean body weights and age. The test compound was dissolved in physiological saline before the experiments each day. […]
Each mouse was subjected to 4 trials per day for 5 consecutive days. […] The probe trial (without platform) was assessed within a 60 s period on the fifth day of behavioral testing (one experiment), and the time spent in the southeast quadrant where the escape platform had been set during training was recorded computationally and presented as percentage of spatial bias.
The two-way ANOVA with repeated measures was used to analyze latency values, and calculated as the mean latency periods for each mouse. (Data are expressed as means±S.E.M. by using 2-way ANOVA). One-way ANOVA followed by Duncan's multiple-range test (data expressed as mean±S.E.M. *P<0.05 and **P<0.01 versus scopolamine) was used to analyze group differences of the data collected during probe trials. […]

T1 sequence (Q01718 whole entry): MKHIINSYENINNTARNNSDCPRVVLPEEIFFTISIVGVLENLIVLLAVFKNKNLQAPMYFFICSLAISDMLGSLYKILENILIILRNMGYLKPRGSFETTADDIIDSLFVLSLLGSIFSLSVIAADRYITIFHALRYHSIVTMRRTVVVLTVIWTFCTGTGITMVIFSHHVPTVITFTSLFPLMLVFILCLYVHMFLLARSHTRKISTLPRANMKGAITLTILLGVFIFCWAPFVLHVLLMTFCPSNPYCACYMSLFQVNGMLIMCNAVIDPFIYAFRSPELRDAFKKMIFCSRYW
T1 sequence (Q8TCY5 whole entry partner): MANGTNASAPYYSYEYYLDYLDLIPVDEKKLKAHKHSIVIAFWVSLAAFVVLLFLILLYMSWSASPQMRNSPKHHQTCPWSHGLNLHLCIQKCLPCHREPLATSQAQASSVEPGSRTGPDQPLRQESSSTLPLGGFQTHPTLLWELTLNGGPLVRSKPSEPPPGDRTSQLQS

| Structure (SMILES) | Agonist effect, cAMP measurement (MC2 receptor; absence of ligand ACTH1-39, cells over-expressing MC2) | Antagonist effect, cAMP measurement (MC2 receptor; presence of ligand ACTH1-39, cells over-expressing MC2) | total infarction of MCAO rats (ischemic rats; 12.6 mg/kg and 25.2 mg/kg orally 6 h post-ischemia) | extent of edema (ischemic rats; 42 mg/kg) | neurological scores of ischemic rats (ischemic rats; 12.6 and 25.2 mg/kg orally 6 h post-ischemia) | protection from glutamate-induced excitotoxicity (LDH release) (hippocampal neurons) | escape latency [1] |
| --- | --- | --- | --- | --- | --- | --- | --- |
| C=C(C)[C@@H]1CC[C@]2(C(=O)O)CC[C@]3(C)C(CC[C@@H]4[C@@]5(C)CC[C@H](O[C@@H]6OC[C@H](O)[C@H](O)[C@H]6O[C@@H]6O[C@@H](C)[C@H](O)[C@@H](O)[C@H]6O)[C@@](C)(CO)[C@@H]5CC[C@]43C)[C@@H]12 (stereo partly drawn) [DA001, 3-O-[α-L-rhamnopyranosyl-(1→2)-α-L-arabinopyranosyl]-3,23-dihydroxy-20(29)-lupen-28-oic acid] | 0 | −8 | significantly decreased | reduced the extent of edema | significantly improved | – | – |
| C=C(C)[C@@H]1CC[C@]2(/C=N/O)CC[C@]3(C)C(CCC4[C@@]5(C)CCC(=O)[C@@](C)(CO)[C@@H]5CC[C@]43C)C12 (stereo partly shown) [DA021] | – | – | – | – | – | protects neurons against differing concentrations of glutamate | significantly reversed the increased escape latency |
